Measured values as given in patent publication US11759461B2, “Small molecule inhibitors of cancer stem cells and mesenchymal cancer types” (The Scripps Research Institute, priority 2017, dated 2023).
Read-outs that look alike come from different tables or passages of the source.

System: FOXC2-expressing HMLER cells
Experiment: Cell Titer Glo viability of FOXC2-HMLER cells (high throughput screen and 10-point response)
Assay type: cell-based
Conditions: Homo sapiens, 72 hours
Procedure: For high throughput screening, FOXC2-HMLER and HMLER cells were plated at 10^3 cells per well in white 384-well plates in 50 μL of MEGM medium (Lonza). Cells were allowed to attach for one hour before compound was transferred to each well as a DMSO solution using a 100 nL pintool head affixed to a PerkinElmer FX instrument. After 72-hour incubation, 30 μL of a Cell Titer Glo solution (diluted 1:6 in water, Promega) was dispensed into each well and luminance values were recorded using an Envision plate reader. […] All other miniaturized, selective viability experiments were performed as above using the indicated growth medium.
More specifically, in the high throughput screening assay above, each cell line was plated at 1,000 cells per well in 384-well plates, treated for 72 hours with 2 μM of test compound, and the viability of each line was determined in parallel by Cell Titer Glo (Promega) luminance measurements.

[1] = scored relative to parent compound 2, read-out: Activity Score, inhibition of FOXC2-expressing HMLER cells by Formula II compounds
[2] = scored relative to parent compound 1, read-out: Activity Score, inhibition of FOXC2-expressing HMLER cells by Formula I compounds
[3] = scored relative to parent compound 4, read-out: Activity Score, inhibition of FOXC2-expressing HMLER cells by Formula IV compounds
[4] = scored relative to parent compound 3, read-out: Activity Score, inhibition of FOXC2-expressing HMLER cells by Formula III compounds

Row | Compound | IC50 [1] | further results
1 | CCOc1ccc(NC(=O)Cn2c(=O)c(CNc3ccc(OC)cc3)cc3ccc(OC)cc32)cc1 [Compound 2CV] | > 20 µM | –
2 | COc1ccc(NCc2cc3ccc(OC)cc3n(CC(=O)Nc3cc(C)ccc3C)c2=O)cc1 [Compound 2HE] | > 20 µM | –
3 | CCc1ccc(NCc2cc3cc(OC)c(OC)cc3n(CC(=O)Nc3cc(C)cc(C)c3)c2=O)cc1 [Compound 2IH] | > 20 µM | –
4 | COc1cccc(NC(=O)Cn2c(=O)c(CNc3ccc(C)cc3)cc3cc(OC)c(OC)cc32)c1 [Compound 2BU] | > 20 µM | –
5 | CC1CC(C)CN(c2cnnc3c(Cl)cccc23)C1 (stereo not drawn) [Compound 1A] | – | IC50 [2]: 1 to 20 µM
6 | COc1ccc(NCc2cc3ccc(OC)cc3n(CC(=O)Nc3cccc(Cl)c3)c2=O)cc1 [Compound 2EV] | > 20 µM | –
7 | Cc1cccc(-c2cc(N3CCN(S(=O)(=O)c4cnn(C(F)F)c4C)CC3)ncn2)c1 [Compound 4S] | – | IC50 [3]: > 20 µM
8 | COc1cccc(N2CCN(C(=O)c3cccc(-n4nnc5cccnc54)c3C)CC2)c1 [Compound 3F] | – | IC50 [4]: < 1 µM
9 | Cc1ccc(C(=O)NC2CCN(Cc3ccccc3)CC2)cc1-n1nnc2cccnc21 [Compound 3BH] | – | IC50 [4]: > 20 µM
10 | COc1ccc(NCc2cc3ccc(C)cc3n(CC(=O)Nc3cc(C)ccc3C)c2=O)cc1OC [Compound 2L] | 1 to 20 µM | –
11 | CCc1ccc(NC(=O)Cn2c(=O)c(CNc3ccc(OC)cc3)cc3cc4c(cc32)OCCO4)cc1 [Compound 2IK] | > 20 µM | –
12 | Cc1ccc(C(=O)N2CCN(c3cccc(Cl)c3)CC2)cc1-n1nnc2cccnc21 [Compound 3W] | – | IC50 [4]: 1 to 20 µM
13 | COc1ccc2cc(CNc3ccccc3)c(=O)n(CC(=O)Nc3ccc(C)cc3Cl)c2c1 [Compound 2BA] | > 20 µM | –
14 | CCc1ccc(NCc2cc3ccc(OC)cc3n(CC(=O)Nc3ccc(C)c(C)c3)c2=O)cc1 [Compound 2CT] | > 20 µM | –
15 | COc1cc2cc(CNc3ccc(C)cc3)c(=O)n(CC(=O)Nc3cc(C)ccc3C)c2cc1OC [Compound 2AB] | 1 to 20 µM | –
16 | COc1ccc2cc(CNc3ccccc3)c(=O)n(CC(=O)Nc3cc(Cl)ccc3C)c2c1 [Compound 2CC] | > 20 µM | –
17 | CCc1ccc(NCc2cc3ccc(OC)cc3n(CC(=O)Nc3c(C)cc(C)cc3C)c2=O)cc1 [Compound 2AO] | 1 to 20 µM | –
18 | Cc1nn(-c2ccccc2)c(C)c1S(=O)(=O)N1CCN(c2ccccn2)CC1 [Compound 4J] | – | IC50 [3]: 1 to 20 µM
19 | CCc1ccc(NCc2cc3cc(OC)c(OC)cc3n(CC(=O)Nc3ccc(C)c(C)c3)c2=O)cc1 [Compound 2EC] | > 20 µM | –

Row | Compound | IC50 [1] | further results
20 | CCc1ccc(NCc2cc3cc(OC)c(OC)cc3n(CC(=O)Nc3ccc(CC)cc3)c2=O)cc1 [Compound 2AS] | > 20 µM | –
21 | Cc1ccc(C)c(N2CCN(C(=O)c3cccc(-n4nnc5cccnc54)c3)CC2)c1 [Compound 3D] | – | IC50 [4]: < 1 µM
22 | COc1ccc2cc(CNc3ccccc3)c(=O)n(CC(=O)Nc3ccccc3)c2c1 [Compound 2DM] | > 20 µM | –
23 | COc1cccc(NC(=O)Cn2c(=O)c(CNc3ccc(C)cc3)cc3cc4c(cc32)OCCO4)c1 [Compound 2GC] | > 20 µM | –
24 | Cc1nn(-c2ccc(-c3ccccc3)nn2)c(C)c1S(=O)(=O)N1CCN(c2ccccc2)CC1 [Compound 4AO] | – | IC50 [3]: > 20 µM
25 | COc1ccc2cc(CNc3ccc(C)cc3)c(=O)n(CC(=O)Nc3c(C)cccc3C)c2c1 [Compound 2IM] | > 20 µM | –
26 | Cc1nn(-c2ccc(F)cc2)c(C)c1S(=O)(=O)N1CCN(c2ccccn2)CC1 [Compound 4AB] | – | IC50 [3]: > 20 µM
27 | CCc1ccc(NCc2cc3ccc(OC)cc3n(CC(=O)NCCc3ccccc3)c2=O)cc1 [Compound 2GL] | > 20 µM | –
28 | COc1ccc(F)cc1-c1cc(N2CCN(S(=O)(=O)c3cnn(C(F)F)c3C)CC2)ncn1 [Compound 4Z] | – | IC50 [3]: > 20 µM
29 | COc1ccc(NCc2cc3ccc(OC)cc3n(CC(=O)Nc3ccc(C)c(Cl)c3)c2=O)cc1 [Compound 2EO] | > 20 µM | –
30 | COc1ccc(NCc2cc3ccc(OC)cc3n(CC(=O)Nc3ccccc3OC)c2=O)cc1 [Compound 2GK] | > 20 µM | –
31 | COc1ccc2cc(CNc3ccc(C)cc3)c(=O)n(CC(=O)Nc3ccccc3Cl)c2c1 [Compound 2EB] | > 20 µM | –
32 | FC(F)(F)Sc1cccc(N2CCN(c3cnnc4c(Cl)cccc34)CC2)c1 [Compound 1SRQ] | – | IC50 [2]: 1 to 20 µM
33 | COc1ccc(NCc2cc3cc4c(cc3n(CC(=O)Nc3cc(C)ccc3C)c2=O)OCCO4)cc1 [Compound 2W] | 1 to 20 µM | –
34 | COc1ccc(NC(=O)Cn2c(=O)c(CNc3ccc(OC)c(OC)c3)cc3ccc(C)cc32)cc1 [Compound 2HU] | > 20 µM | –
35 | Cc1c(C(=O)NC2CCN(Cc3ccccc3)CC2)cccc1-n1nnc2cccnc21 [Compound 3BU] | – | IC50 [4]: > 20 µM
36 | COc1ccc(NCc2cc3ccc(C)cc3n(CC(=O)Nc3ccc(C)cc3C)c2=O)cc1OC [Compound 2F] | 1 to 20 µM | –
37 | Cc1c(C(=O)NCCC(C)N2CCCC2)cccc1-n1nnc2cccnc21 (stereo not drawn) [Compound 3CJ] | – | IC50 [4]: > 20 µM
38 | COc1ccc2cc(CNc3ccccc3)c(=O)n(CC(=O)Nc3ccc(C)cc3C)c2c1 [Compound 2EN] | > 20 µM | –

Row | Compound | IC50 [1] | further results
39 | Cc1ccc(NCc2cc3cc4c(cc3n(CC(=O)Nc3cccc(C)c3)c2=O)OCCO4)cc1 [Compound 2DG] | > 20 µM | –
40 | Cc1c(C(=O)NCCCN2CCC(Cc3ccccc3)CC2)cccc1-n1nnc2cccnc21 [Compound 3AK] | – | IC50 [4]: 1 to 20 µM
41 | COc1ccc(N2CCN(CCCNC(=O)c3cccc(-n4nnc5cccnc54)c3C)CC2)cc1 [Compound 3BZ] | – | IC50 [4]: > 20 µM
42 | Cc1ccc(S(=O)(=O)N2CCN(c3cc(-c4ccccc4)ncn3)CC2)c(C)c1 [Compound 4W] | – | IC50 [3]: > 20 µM
43 | CCc1ccc(NCc2cc3cc(OC)c(OC)cc3n(CC(=O)Nc3ccccc3C)c2=O)cc1 [Compound 2DK] | > 20 µM | –
44 | COc1ccc2cc(CNc3ccc(C)cc3)c(=O)n(CC(=O)Nc3ccccc3F)c2c1 [Compound 2O] | 1 to 20 µM | –
45 | COc1ccc2cc(CNc3ccccc3)c(=O)n(CC(=O)Nc3ccccc3F)c2c1 [Compound 2DD] | > 20 µM | –
46 | CCc1ccc(NCc2cc3ccc(OC)cc3n(CC(=O)Nc3ccc(C)cc3C)c2=O)cc1 [Compound 2J] | 1 to 20 µM | –
47 | CCc1ccc(NC(=O)Cn2c(=O)c(CNc3ccccc3)cc3cc4c(cc32)OCCO4)cc1 [Compound 2AE] | 1 to 20 µM | –
48 | COc1ccc2cc(CNc3ccccc3)c(=O)n(CC(=O)Nc3cccc(Cl)c3C)c2c1 [Compound 2EZ] | > 20 µM | –
49 | Clc1ccc(N2CCN(c3cnnc4c(Cl)cccc34)CC2)cc1Cl [Compound 1SRAA] | – | IC50 [2]: 1 to 20 µM
50 | CCc1ccc(NCc2cc3ccc(OC)cc3n(CC(=O)Nc3ccc(C(C)C)cc3)c2=O)cc1 [Compound 2EK] | > 20 µM | –
51 | COc1ccc2cc(CNc3ccccc3)c(=O)n(CC(=O)NCc3ccc(F)cc3)c2c1 [Compound 2IA] | > 20 µM | –
52 | CC(=O)c1ccc(NC(=O)Cn2c(=O)c(CNc3ccc(C)cc3)cc3cc4c(cc32)OCCO4)cc1 [Compound 2DC] | > 20 µM | –
53 | COc1cc2cc(CNc3ccccc3)c(=O)n(CC(=O)Nc3ccccc3Cl)c2cc1OC [Compound 2FS] | > 20 µM | –
54 | CCc1ccc(NCc2cc3cc4c(cc3n(CC(=O)Nc3ccccc3CC)c2=O)OCCO4)cc1 [Compound 2N] | 1 to 20 µM | –
55 | COc1ccc2cc(CNc3ccccc3)c(=O)n(CC(=O)Nc3cc(Cl)ccc3OC)c2c1 [Compound 2BS] | > 20 µM | –
56 | Cc1cc(C(=O)N2CCC(Cc3ccccc3)CC2)ccc1-n1nnc2cccnc21 [Compound 3M] | – | IC50 [4]: 1 to 20 µM
57 | COc1ccc2cc(CNc3ccc(OC)c(OC)c3)c(=O)n(CC(=O)Nc3ccc(C)cc3)c2c1 [Compound 2HW] | > 20 µM | –
